This assay has as its system ER-alpha MCF7. Nature of the assay: ER-alpha MCF7 HCS EC50; stated as measured by in vitro cell proliferation assays of Examples 902 and 903. In kind it is cell-based. The following applies: Table 2. In outline:
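MCF7 cells seeded 1000-2000 cells/well for 16 h, then treated with nine-point 1:2 DMSO dilution series in quadruplicate at 37 °C, 5% CO2 for 4 days. Viable cells quantified by CellTiter-Glo ATP luminescence; EC50 calculated. Controls: fulvestrant at final 100 nM, DMSO 0.2% v/v.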

Take `C[C@@H]1Cc2c([nH]c3ccccc23)[C@@H](c2c(F)cc(OC3CN(CCCF)C3)cc2F)N1C[C@@H](CO)C(F)(F)F` [Example 376, (S)-2-(((1R,3R)-1-(2,6-difluoro-4-((1-(3-fluoropropyl)azetidin-3-yl)oxy)phenyl)-3-methyl-1,3,4,9-tetrahydro-2H-pyrido[3,4-b]indol-2-yl)methyl)-3,3,3-trifluoropropan-1-ol]: for the setting “Homo sapiens, MCF7, MCF7 cells”, the 50% effective concentration (EC50) (in general, the concentration giving half of the maximal effect) came out at 1 nM.
The same measure, in the same setting: the result for `C[C@@H]1Cc2c([nH]c3ccccc23)[C@@H](c2cnc(OC3CN(CCCF)C3)nc2)N1CC(C)(C)F` [Example 377, (1R,3R)-2-(2-fluoro-2-methylpropyl)-1-(2-((1-(3-fluoropropyl)azetidin-3-yl)oxy)pyrimidin-5-yl)-3-methyl-2,3,4,9-tetrahydro-1H-pyrido[3,4-b]indole] reads 0.5 nM.
The same measure, in the same setting: as for `C[C@@H]1Cc2c([nH]c3ccccc23)[C@H](c2c(F)cc(OCCN3CC(CF)C3)cc2F)N1CC(C)(C)C(=O)O` [Example 378, 3-[(1S,3R)-1-[2,6-difluoro-4-[2-[3-(fluoromethyl)azetidin-1-yl]ethoxy]phenyl]-3-methyl-1,3,4,9-tetrahydropyrido[3,4-b]indol-2-yl]-2,2-dimethyl-propanoic acid], the figure is 28 nM.
In the case of `C[C@@H]1Cc2c([nH]c3ccccc23)[C@@H](c2c(F)cc(OCCN3CC(CF)C3)cc2F)N1CC(C)(F)F` [Example 379, (1R,3R)-1-(2,6-difluoro-4-(2-(3-(fluoromethyl)azetidin-1-yl)ethoxy)phenyl)-2-(2,2-difluoropropyl)-3-methyl-2,3,4,9-tetrahydro-1H-pyrido[3,4-b]indole], under “Homo sapiens, MCF7, MCF7 cells”, the EC50 was determined as 0.28 nM.
`C[C@@H]1Cc2c([nH]c3ccccc23)[C@@H](c2ccc([C@@H](O)C3CN(CCCF)C3)cc2)N1CC(C)(C)F` [Example 380, (S)-(4-((1R,3R)-2-(2-fluoro-2-methylpropyl)-3-methyl-2,3,4,9-tetrahydro-1H-pyrido[3,4-b]indol-1-yl)phenyl)(1-(3-fluoropropyl)azetidin-3-yl)methanol]: the EC50 (Homo sapiens, MCF7, MCF7 cells) was 0.188 nM.
Same read-out and setting: the result for `C[C@@H]1Cc2c([nH]c3ccccc23)[C@@H](c2ccc([C@H](O)C3CN(CCCF)C3)cc2)N1CC(C)(C)F` [Example 381, (R)-(4-((1R,3R)-2-(2-fluoro-2-methylpropyl)-3-methyl-2,3,4,9-tetrahydro-1H-pyrido [3,4-b]indol-1-yl)phenyl)(1-(3-fluoropropyl)azetidin-3-yl)methanol] reads 0.605 nM.
The same measure, in the same setting: as for `C[C@@H]1Cc2c([nH]c3ccccc23)[C@@H](c2c(F)cc(NC3CN(CCCF)C3)cc2F)N1CC(C)(C)C(=O)O` [Example 382, 3-((1R,3R)-1-(2,6-difluoro-4-((1-(3-fluoropropyl)azetidin-3-yl)amino)phenyl)-3-methyl-1,3,4,9-tetrahydro-2H-pyrido[3,4-b]indol-2-yl)-2,2-dimethylpropanoic acid], the figure is 1.01 nM; as for `C[C@@H]1Cc2c([nH]c3ccc(F)cc23)[C@@H](c2c(F)cc(OCCN3CC(CF)C3)cc2F)N1CC(F)F` [Example 383, (1R,3R)-1-(2,6-difluoro-4-(2-(3-(fluoromethyl)azetidin-1-yl)ethoxy)phenyl)-2-(2,2-difluoroethyl)-6-fluoro-3-methyl-2,3,4,9-tetrahydro-1H-pyrido[3,4-b]indole], 0.28 nM; as for `C[C@H]1Cc2c([nH]c3ccc(F)cc23)[C@H](c2c(F)cc(OCCN3CC(CF)C3)cc2F)N1CC(F)F` [Example 384, (1S,3S)-1-(2,6-difluoro-4-(2-(3-(fluoromethyl)azetidin-1-yl)ethoxy)phenyl)-2-(2,2-difluoroethyl)-6-fluoro-3-methyl-2,3,4,9-tetrahydro-1H-pyrido[3,4-b]indole], 29 nM.
Same read-out and setting: as for `C[C@@H]1Cc2c([nH]c3ccc(F)cc23)[C@@H](c2c(F)cc(OC3CN(CCCF)C3)cc2F)N1CC(F)F` [Example 385, (1R,3R)-1-(2,6-difluoro-4-((1-(3-fluoropropyl)azetidin-3-yl)oxy)phenyl)-2-(2,2-difluoroethyl)-6-fluoro-3-methyl-2,3,4,9-tetrahydro-1H-pyrido[3,4-b]indole], the figure is 0.074 nM; as for `C[C@H]1Cc2c([nH]c3ccc(F)cc23)[C@H](c2c(F)cc(OC3CN(CCCF)C3)cc2F)N1CC(F)F` [Example 386, (1S,3S)-1-(2,6-difluoro-4-((1-(3-fluoropropyl)azetidin-3-yl)oxy)phenyl)-2-(2,2-difluoroethyl)-6-fluoro-3-methyl-2,3,4,9-tetrahydro-1H-pyrido[3,4-b]indole], 23 nM.
Take `C[C@@H]1Cc2c([nH]c3ccc(F)cc23)[C@@H](c2c(F)cc(NC3CN(CCCF)C3)cc2F)N1S(C)(=O)=O` [Example 387, N-(3,5-difluoro-4-((1R,3R)-6-fluoro-3-methyl-2-(methylsulfonyl)-2,3,4,9-tetrahydro-1H-pyrido[3,4-b]indol-1-yl)phenyl)-1-(3-fluoropropyl)azetidin-3-amine]: the EC50 (Homo sapiens, MCF7, MCF7 cells) worked out at 0.149 nM.
Turning to `C[C@H]1Cc2c([nH]c3ccc(F)cc23)[C@H](c2c(F)cc(NC3CN(CCCF)C3)cc2F)N1S(C)(=O)=O` [Example 388, N-(3,5-difluoro-4-((1S,3S)-6-fluoro-3-methyl-2-(methylsulfonyl)-2,3,4,9-tetrahydro-1H-pyrido[3,4-b]indol-1-yl)phenyl)-1-(3-fluoropropyl)azetidin-3-amine], the EC50 (Homo sapiens, MCF7, MCF7 cells) was 19 nM.
Take `C[C@@H]1Cc2c([nH]c3ccc(F)cc23)[C@@H](c2c(F)cc(NC3CN(CCCF)C3)cc2F)N1CC(F)F` [Example 389, N-(4-((1R,3R)-2-(2,2-difluoroethyl)-6-fluoro-3-methyl-2,3,4,9-tetrahydro-1H-pyrido[3,4-b]indol-1-yl)-3,5-difluorophenyl)-1-(3-fluoropropyl)azetidin-3-amine]: the EC50 (Homo sapiens, MCF7, MCF7 cells) was found to be 0.056 nM.
On the same count and under the same terms, the result for `C[C@H]1Cc2c([nH]c3ccc(F)cc23)[C@H](c2c(F)cc(NC3CN(CCCF)C3)cc2F)N1CC(F)F` [Example 390, N-(4-((1S,3S)-2-(2,2-difluoroethyl)-6-fluoro-3-methyl-2,3,4,9-tetrahydro-1H-pyrido[3,4-b]indol-1-yl)-3,5-difluorophenyl)-1-(3-fluoropropyl)azetidin-3-amine] reads 9.7 nM.
Regarding `C[C@@H]1Cc2c([nH]c3ccccc23)[C@@H](c2c(F)cc(OC3CN(C4CC(CF)C4)C3)cc2F)N1CC(C)(C)F` (stereo partly drawn) [Example 391, (1R,3R)-1-(2,6-difluoro-4-((1- cis-(3-(fluoromethyl)cyclobutyl)azetidin-3-yl)oxy)phenyl)-2-(2-fluoro-2-methylpropyl)-3-methyl-2,3,4,9-tetrahydro-1H-pyrido[3,4-b]indole], where the note is “MCF7 cells”, the EC50 turned out to be 0.15 nM.
The same measure, in the same setting: the result for `C[C@@H]1Cc2c([nH]c3ccccc23)[C@@H](c2c(F)cc(OC3CN(C4CC(CF)C4)C3)cc2F)N1CC(C)(C)F` (stereo partly drawn) [Example 392, (1R,3R)-1-(2,6-difluoro-4-((1- trans-(3-(fluoromethyl)cyclobutyl)azetidin-3-yl)oxy)phenyl)-2-(2-fluoro-2-methylpropyl)-3-methyl-2,3,4,9-tetrahydro-1H-pyrido[3,4-b]indole] reads 0.44 nM.
On to `C[C@@H]1Cc2c([nH]c3ccccc23)[C@@H](c2c(F)cc(OC3CN(CCCF)C3)cc2F)N1CC1(F)CCC1` [Example 393, (1R,3R)-1-(2,6-difluoro-4-((1-(3-fluoropropyl)azetidin-3-yl)oxy)phenyl)-2-((1-fluorocyclobutyl)methyl)-3-methyl-2,3,4,9-tetrahydro-1H-pyrido[3,4-b]indole], for which the EC50 (Homo sapiens, MCF7, MCF7 cells) amounted to 0.142 nM.
Regarding `C[C@@H]1Cc2c([nH]c3ccccc23)[C@@H](c2c(F)cc(OCCN3CC(CF)C3)cc2F)N1C[C@H](F)CO` [Example 394, (S)-3-((1R,3R)-1-(2,6-difluoro-4-(2-(3-(fluoromethyl)azetidin-1-yl)ethoxy)phenyl)-3-methyl-3,4-dihydro-1H-pyrido[3,4-b]indol-2(9H)-yl)-2-fluoropropan-1-ol], the EC50 (Homo sapiens, MCF7, MCF7 cells) worked out at 0.23 nM.
In the case of `C[C@@H]1Cc2c([nH]c3ccccc23)[C@@H](c2c(F)cc(OCCN3CC(CF)C3)cc2F)N1C[C@@H](F)CO` [Example 395, (R)-3-((1R,3R)-1-(2,6-difluoro-4-(2-(3-(fluoromethyl)azetidin-1-yl)ethoxy)phenyl)-3-methyl-3,4-dihydro-1H-pyrido[3,4-b]indol-2(9H)-yl)-2-fluoropropan-1-ol], the concentration giving a half-maximal response (EC50) (Homo sapiens, MCF7, MCF7 cells) was 0.053 nM.
On the same count and under the same terms, the result for `C[C@@H]1Cc2c([nH]c3cc(F)ccc23)[C@@H](c2c(F)cc(NC3CN(CCCF)C3)cc2F)N1CC(F)(F)F` [Example 396, N-(3,5-difluoro-4-((1R,3R)-7-fluoro-3-methyl-2-(2,2,2-trifluoroethyl)-2,3,4,9-tetrahydro-1H-pyrido[3,4-b]indol-1-yl)phenyl)-1-(3-fluoropropyl)azetidin-3-amine] reads 0.11 nM.
`C[C@H]1Cc2c([nH]c3cc(F)ccc23)[C@H](c2c(F)cc(NC3CN(CCCF)C3)cc2F)N1CC(F)(F)F` [Example 397, N-(3,5-difluoro-4-((1S,3S)-7-fluoro-3-methyl-2-(2,2,2-trifluoroethyl)-2,3,4,9-tetrahydro-1H-pyrido[3,4-b]indol-1-yl)phenyl)-1-(3-fluoropropyl)azetidin-3-amine]: under “Homo sapiens, MCF7, MCF7 cells”, the concentration for a half-maximal effect (EC50) was 33 nM.
The same measure, in the same setting: as for `C[C@@H]1Cc2c([nH]c3cccc(F)c23)[C@@H](c2c(F)cc(NC3CN(CCCF)C3)cc2F)N1C[C@](C)(F)CO` [Example 398, (S)-3-((1R,3R)-1-(2,6-difluoro-4-((1-(3-fluoropropyl)azetidin-3-yl)amino)phenyl)-5-fluoro-3-methyl-3,4-dihydro-1H-pyrido[3,4-b]indol-2(9H)-yl)-2-fluoro-2-methylpropan-1-ol], the figure is 0.11 nM.
Take `C[C@H]1Cc2c([nH]c3cccc(F)c23)[C@H](c2c(F)cc(NC3CN(CCCF)C3)cc2F)N1C[C@@](C)(F)CO` [Example 399, (R)-3-((1S,3S)-1-(2,6-difluoro-4-((1-(3-fluoropropyl)azetidin-3-yl)amino)phenyl)-5-fluoro-3-methyl-3,4-dihydro-1H-pyrido[3,4-b]indol-2(9H)-yl)-2-fluoro-2-methylpropan-1-ol]: the EC50 (Homo sapiens, MCF7, MCF7 cells) turned out to be 1.1 nM.

(Values after patent US20250114338A1, “TETRAHYDRO-PYRIDO[3,4-b]INDOLE ESTROGEN RECEPTOR MODULATORS AND USES THEREOF” (Genentech, Inc., priority 2014, published 2025).)
